Measured values: US6500830B1, “Conversion of modification D to modification A of doxazosin mesylate” (Knoll Aktiengesellschaft, priority 1998, dated 2002)
Counter-ions that a name gives are not always drawn.

Assay: Dissolution of doxazosin mesylate in recrystallisation solvents
Format: physicochemical
Text: Although doxazosin is mostly used as monomesylate, the preparation of this salt has not to date been described. […] The product isolated after cooling the suspension contains chloroform, which is a solvent which is objectionable from the toxicological viewpoint and which can be removed only with difficulty and not without adverse effects on the active ingredient. […] In addition, the yield is poor and the material proves to be X-ray amorphous. […] Hot filtration of the suspension affords a small yield of the described ethanol modification A as residue on the filter. Cooling the filtrate results in only a moderate yield of impure A modification.

Compound: COc1cc2nc(N3CCN(C(=O)C4COc5ccccc5O4)CC3)nc(N)c2cc1OC (stereo not drawn) [doxazosin mesylate, 4-amino-2-[4-(1,4-benzodioxane-2-carbonyl)piperazin-1-yl]-6,7-dimethoxyquinazoline]
- solubility in chloroform (75 times the amount of chloroform at the boiling point): does not dissolve
- solubility in ethanol (350 times the amount of ethanol at the boiling point of the solvent): does not dissolve
- solubility in water (water, compared with chloroform): dissolves better in water
